Measured values published in patent publication US20130079305A1, “3-SUBSTITUTED VINYLBORONATES AND USES THEREOF” (Yissum Research Development Company of the Hebrew …, priority 2010, published 2013).

Tests used:
[1] = test system: ARH-77 (myeloma) cells; assay: MTT assay, ARH-77 (myeloma) cells; type: cell-based; settings: ARH-77 cells; for IC50: Homo sapiens, 72 h incubation
Procedure: (§1) ARH-77 (myeloma) and HT-29 (colon cancer) cells were grown and counted, and were thereafter plated in 96-wells plates to get 0.1×10^6 cells/well. The plates were left in the incubator overnight for cells attachment and the tested compounds were then added to the cells. The tested concentrations of the compounds were 1, 2, 5, 10, 20, 50 and 100 μM. The compounds were incubated with the cells for 24 hours, 48 hours or for 72 hours, and were thereafter subjected to the MTT assay.

[2] = test system: HT-29 (colon cancer) cells; assay: MTT assay, HT-29 (colon cancer) cells; type: cell-based; settings: Homo sapiens, HT-29 cells, 72 h incubation
Procedure: as §1

`CCC/C(=C\B1OC(C)(C)C(C)(C)O1)C(O)(c1ccccc1)C1CC1` (centres unmarked) [Compound E2] gave an IC50 [1] of 54 µM and an IC50 [2] of 85 µM.
`CCC/C(=C\B1OC(C)(C)C(C)(C)O1)C1(O)CCCc2ccccc21` (centres unmarked) [Compound E3] was tested, and the IC50 [1] was 65 µM and the IC50 [2] was 85 µM.
With `CCC/C(=C\B1OC(C)(C)C(C)(C)O1)C(O)c1ccccc1` (centres unmarked) [Compound E4] the “IC50, ARH-77, 72 h incubation” value [1] was “not active” and the IC50 [2] was > 100 µM.
`CCCCCCC(C)(O)/C(=C/B1OC(C)(C)C(C)(C)O1)CCC` (centres unmarked) [Compound E5] was tested, and the IC50 [1] was 30 µM and the IC50 [2] was 55 µM.
`CCCCC(C)(O)/C(=C/B1OC(C)(C)C(C)(C)O1)CCC` (centres unmarked) [Compound E6] was tested, and the IC50 [1] was 54 µM and the IC50 [2] was 80 µM.
For `CCCCCCCC/C(=C\B1OC(C)(C)C(C)(C)O1)C(O)(c1ccccc1)C1CC1` (centres unmarked) [Compound E7], the IC50 [1] was 6 µM and the IC50 [2] was 15 µM.
With `CCCCCCCC/C(=C\B1OC(C)(C)C(C)(C)O1)C(C)(O)CCCCCC` (centres unmarked) [Compound E8] the IC50 [1] was 78 µM and the IC50 [2] was > 100 µM.
